Tested on: Human skin fibroblasts on collagen-coated surfaces
Type: cell-based
Settings: 0.5 mg/ml peptide; serum-free DMEM; 60 minutes
Protocol: The incubations contained peptides at the concentrations indicated and cell spreading was measured after 60 minute Method: Falcon 35 mm tissue culture dishes were coated with collagen (Vitrogen 100; 50 ug/ml in DMEM) for 15 minutes at 37° C. and counter-coated for 15 minutes with 1 mg/ml heat denatured bovine serum albumin. Human skin fibroblasts in DMEM with peptides added at the concentrations indicated were incubated on the substrata for 60 minutes at 37°. The end of the incubations, the cells were fixed and projected cell surface areas were measured by superimposing the microscopic field on the digitizing tablet of a Zidas image analyzer. Data presented are averages±95% confidence limits based on measurement of 50-100 cells. See reference 21 for complete details.

In the case of N=C(N)NCCC[C@H](NC(=O)CN)C(=O)NCC(=O)N[C@@H](CC(=O)O)C(=O)N[C@@H](CO)C(=O)N1CCC[C@H]1C(=O)O [GRGDSP, Gly--Arg--Gly--Asp--Ser--Pro], the “inhibition of cell spreading on collagen-coated surfaces” value is reported as “about 50%”.

Source: patent US4957902A, “Peptide inhibitors of wound contraction” (Board of Regents, the University of Texas System, priority 1988, dated 1990)
